Data: patent publication US20250387419A1, “PARP INHIBITOR-RESISTANT PATIENT TREATED WITH TH-302” (ASCENTAWITS PHARMACEUTICALS, LTD., priority 2021, published 2025)
Several values for one entry are separate records, joined by “and”; a condition that tells them apart may be missing. Identical values can stand only once.

What was measured:
[1] = Safety (body weight) in Capan-1 CDX model (3.2); type: in vivo
Description: (§1) Protocol: Nude BALB/c mice were subcutaneously inoculated with human pancreatic cancer Capan-1 cells, establishing a human pancreatic cancer subcutaneous xenograft model. The mice were divided into 7 groups, 6 in each group: 100 mg/kg of the test drug olaparib as a monotherapy (Group 2); 50 mg/kg of TH-302 as a monotherapy (Group 3, QD); 100 mg/kg of TH-302 as a monotherapy (Group 4); 50 mg/kg of TH-302 as a monotherapy (Group 5, QW); 25 mg/kg of TH-302 as a monotherapy (Group 6); 25 mg/kg TH-302 in combination therapy with 100 mg/kg olaparib (Group 7); and 10% anhydrous ethanol+10% polyoxyethylene (35) castor oil+80% glucose injection solution D5W (pH 7.4) as a vehicle control (Group 1). The vehicle control group and the TH-302 test groups were all administered through tail vein injection. The 50 mg/kg TH-302 monotherapy group (Group 3, QD) was administered once daily for 3 consecutive days. After rest for 4 days and two weeks, the mice were again administered daily for another 3 consecutive days. TH-302 in all the 100 mg/kg (Group 4, QW), 50 mg/kg (Group 5, QW) and 25 mg/kg (Group 6, QW) TH-302 monotherapy groups and 25 mg/kg TH-302+100 mg/kg olaparib combination therapy group (Group 7) was administered once weekly for a total of three weeks. The test drug olaparib in all the groups was orally and intragastrically administered once daily for totally 30 days. Routes of administration, doses and regimens for the human pancreatic cancer Capan-1 animal model are specifically summarized in Table 12.
(§2) Tumor growth of the treatment and control groups on different days in the experiment were recorded and shown in Table 13, and corresponding tumor volume growth curves of the mice in respective groups are shown in FIG. 7. Efficacy evaluation was conducted based on relative tumor proliferation rates and relative tumor growth inhibition rates, and the results of efficacy analysis are summarized in Table 14. Body weight changes of the treatment and control groups after administration were recorded to investigate safety of the groups in the human pancreatic cancer Capan-1 subcutaneous model. Body weight change rates of the mice on Day 43 are shown in Table 15, and curves showing body weights of the treatment groups over time are plotted in FIG. 8.

[2] = Safety (body weight) in BL3325 PDX model; type: in vivo, mouse
Description: Protocol: Nude female Balb/c mice were subcutaneously inoculated with HuPrime® bladder cancer BL3325 tumor tissue, establishing a human bladder cancer subcutaneous xenograft tumor model. The mice were divided into 6 groups, 6 in each group: 50 mg/kg of the test drug olaparib as a monotherapy (Group 02); 80 mg/kg TH-302 as a monotherapy (Group 03); 40 mg/kg TH-302 as a monotherapy (Group 04); 20 mg/kg TH-302 as a monotherapy (Group 05); 40 mg/kg TH-302 in combination therapy with 50 mg/kg olaparib (Group 06); and a glucose injection solution as a vehicle control (Group 01). The vehicle control group and the TH-302 treatment groups were all administered through tail vein, once weekly for a total of 3 weeks. Olaparib was intragastrically administered once daily for totally 30 days. Routes of administration, doses and regimens for the HuPrime® bladder cancer BL3325 animal model are specifically summarized in Table 20.
Tumor growth of the treatment and control groups on different days in the experiment were recorded and shown in Table 21, and corresponding tumor volume growth curves of the mice in respective groups are shown in FIG. 11. Efficacy evaluation was carried out based on relative tumor proliferation rates and relative tumor growth inhibition rates, and the results of efficacy analysis are summarized in Table 22. Body weight changes of the treatment and control groups after administration were recorded to investigate safety of the groups in the HuPrime® bladder cancer BL3325 subcutaneous model. Body weight change rates of the mice on Day 35 are shown in Table 23, and curves showing body weights of the treatment groups over time are plotted in FIG. 12.

[3] = system: human pancreatic cancer Capan-1 subcutaneous xenograft model; experiment: In-depth efficacy in olaparib-resistant pancreatic cancer Capan-1 CDX model (3.2); type: in vivo, mouse; settings: for CR Rate: complete response, animals/group
Description: as §1, §2
A relative tumor proliferation rate, denoted as T/C %, is calculated as a relative tumor volume or a tumor weight of a treatment group as a percentage of that of the control group at a certain point of time according to:
T/C %=TRTV/CRTV×100% (where TRTV denotes average RTV of the treatment group; CRTV represents average RTV of the vehicle control group; and RTV=Vt/V0, where V0 is a tumor volume of an animal at the time of randomization, and Vt is a tumor volume of the animal after treatment); or
T/C %=TTW/CTW×100% (where TTW is an average tumor weight of the treatment group at the end of the experiment, and CTW is an average tumor weight of the vehicle control group at the end of the experiment).
A relative tumor growth inhibition rate, denoted as TGI (%), is calculated according to: TGI %=(1−T/C)×100% (where T and C are relative tumor volumes (RTV) or tumor weights (TW) of a treatment group and the control group, respectively, at a particular point of time).

[4] = Group 3: 50 mg/kg i.v. QD, Day 43
[5] = Group 4: 100 mg/kg i.v. QW×3, Day 6
[6] = Group 4: 100 mg/kg i.v. QW×3, Day 43
[7] = Group 5: 50 mg/kg i.v. QW×3, Day 6
[8] = Group 5: 50 mg/kg i.v. QW×3, Day 43
[9] = Group 6: 25 mg/kg i.v. QW×3, Day 6
[10] = Group 6: 25 mg/kg i.v. QW×3, Day 43
[11] = Group 3: 80 mg/kg i.v. QW×3, Day 35
[12] = Group 4: 40 mg/kg i.v. QW×3, Day 35
[13] = Group 5: 20 mg/kg i.v. QW×3, Day 35

Cn1c(COP(=O)(NCCBr)NCCBr)cnc1[N+](=O)[O-] [TH-302, evofosfamide]
Average Body Weight g (x ± S) ([1]; Group 3: 50 mg/kg i.v. QD, Day 6): 22.1 ± 0.4 g
Average Body Weight g (x ± S) [1, 4]: 24.5 ± 0.3 g
Body Weight Change Rate (%) [1, 4]: 10.74% ± 1.25%
Average Body Weight g (x ± S) [1, 5]: 21.8 ± 0.5 g
Average Body Weight g (x ± S) [1, 6]: 24.2 ± 0.7 g
Body Weight Change Rate (%) [1, 6]: 11.04% ± 0.91
Average Body Weight g (x ± S) [1, 7]: 21.9 ± 0.4 g
Average Body Weight g (x ± S) [1, 8]: 25.1 ± 0.4 g
Body Weight Change Rate (%) [1, 8]: 14.81% ± 0.62
Average Body Weight g (x ± S) [1, 9]: 22.0 ± 0.5 g
Average Body Weight g (x ± S) [1, 10]: 26.4 ± 0.7 g
Body Weight Change Rate (%) [1, 10]: 20.46% ± 3.51
Body weight loss / tolerance ([1]; olaparib 100 mg/kg, TH-302 25, 50 (QD), 50 (QW), 100 mg/kg, combination 100 + 25 mg/kg): No significant mouse body weight losses
Average Body Weight g (x ± S) ([2]; Group 3: 80 mg/kg i.v. QW×3, Day 0): 21.7 ± 0.4 g
Average Body Weight g (x ± S) [2, 11]: 23.8 ± 0.6 g
Body Weight Change Rate (%) [2, 11]: 9.46% ± 0.99%
Average Body Weight g (x ± S) ([2]; Group 4: 40 mg/kg i.v. QW×3, Day 0): 21.5 ± 0.3 g
Average Body Weight g (x ± S) [2, 12]: 23.2 ± 0.2 g
Body Weight Change Rate (%) [2, 12]: 7.88% ± 1.16%
Average Body Weight g (x ± S) ([2]; Group 5: 20 mg/kg i.v. QW×3, Day 0): 21.6 ± 0.3 g
Average Body Weight g (x ± S) [2, 13]: 23.0 ± 0.5 g
Body Weight Change Rate (%) [2, 13]: 6.30% ± 1.07%
Tumor volume ([3]; Group 3: 50 mg/kg i.v. QD, Day 9): 194.10 mm^3
Tumor volume ([3]; Group 3: 50 mg/kg i.v. QD, Day 13): 138.02 mm^3
Tumor volume ([3]; Group 3: 50 mg/kg i.v. QD, Day 16): 124.61 mm^3
Tumor volume ([3]; Group 3: 50 mg/kg i.v. QD, Day 20): 105.24 mm^3
Tumor volume ([3]; Group 3: 50 mg/kg i.v. QD, Day 23): 107.93 mm^3
Tumor volume ([3]; Group 3: 50 mg/kg i.v. QD, Day 27): 110.53 mm^3
Tumor volume ([3]; Group 3: 50 mg/kg i.v. QD, Day 30): 123.45 mm^3
Tumor volume ([3]; Group 3: 50 mg/kg i.v. QD, Day 34): 101.47 mm^3
Tumor volume ([3]; Group 3: 50 mg/kg i.v. QD, Day 37): 114.69 mm^3
Tumor volume ([3]; Group 3: 50 mg/kg i.v. QD, Day 41): 134.32 mm^3
Relative Tumor Volume (x ± S) [3, 4]: 0.99 ± 0.22
T/C (%) [3, 4]: 10.83%
TGI (%) [3, 4]: 89.17%
Tumor volume ([3]; Group 3: 50 mg/kg i.v. QD, Day 43, 50 mg/kg): 146.99 mm^3 and 146.99 ± 37.96 mm^3
CR Rate [3, 4]: 0/6
Tumor volume ([3]; Group 3: 50 mg/kg i.v. QD×3, 4 days off, 2 weeks off, QD×3, Day 6): 146.76 mm^3
Tumor volume [3, 5]: 146.05 mm^3
Tumor volume ([3]; Group 4: 100 mg/kg i.v. QW×3, Day 9): 193.80 mm^3
Tumor volume ([3]; Group 4: 100 mg/kg i.v. QW×3, Day 13): 123.87 mm^3
Tumor volume ([3]; Group 4: 100 mg/kg i.v. QW×3, Day 16): 112.22 mm^3
Tumor volume ([3]; Group 4: 100 mg/kg i.v. QW×3, Day 20): 85.08 mm^3
Tumor volume ([3]; Group 4: 100 mg/kg i.v. QW×3, Day 23): 59.95 mm^3
Tumor volume ([3]; Group 4: 100 mg/kg i.v. QW×3, Day 27): 49.03 mm^3
Tumor volume ([3]; Group 4: 100 mg/kg i.v. QW×3, Day 30): 48.35 mm^3
Tumor volume ([3]; Group 4: 100 mg/kg i.v. QW×3, Day 34): 65.87 mm^3
Tumor volume ([3]; Group 4: 100 mg/kg i.v. QW×3, Day 37): 75.54 mm^3
Tumor volume ([3]; Group 4: 100 mg/kg i.v. QW×3, Day 41): 106.10 mm^3
Relative Tumor Volume (x ± S) [3, 6]: 0.83 ± 0.17
T/C (%) [3, 6]: 9.11%
TGI (%) [3, 6]: 90.89%
Tumor volume ([3]; Group 4: 100 mg/kg i.v. QW×3, Day 43, 100 mg/kg): 124.68 mm^3 and 124.68 ± 31.35 mm^3
CR Rate [3, 6]: 0/6
Tumor volume [3, 7]: 147.11 mm^3
Tumor volume ([3]; Group 5: 50 mg/kg i.v. QW×3, Day 9): 182.60 mm^3
Tumor volume ([3]; Group 5: 50 mg/kg i.v. QW×3, Day 13): 178.72 mm^3
Tumor volume ([3]; Group 5: 50 mg/kg i.v. QW×3, Day 16): 181.66 mm^3
Tumor volume ([3]; Group 5: 50 mg/kg i.v. QW×3, Day 20): 181.56 mm^3
Tumor volume ([3]; Group 5: 50 mg/kg i.v. QW×3, Day 23): 156.49 mm^3
Tumor volume ([3]; Group 5: 50 mg/kg i.v. QW×3, Day 27): 152.57 mm^3
Tumor volume ([3]; Group 5: 50 mg/kg i.v. QW×3, Day 30): 152.13 mm^3
Tumor volume ([3]; Group 5: 50 mg/kg i.v. QW×3, Day 34): 176.07 mm^3
Tumor volume ([3]; Group 5: 50 mg/kg i.v. QW×3, Day 37): 198.42 mm^3
Tumor volume ([3]; Group 5: 50 mg/kg i.v. QW×3, Day 41): 221.92 mm^3
Complete tumor inhibition rate [3, 8]: 33.3%
Relative Tumor Volume (x ± S) [3, 8]: 1.81 ± 0.64
T/C (%) [3, 8]: 19.82%
TGI (%) [3, 8]: 80.18%
Tumor volume ([3]; Group 5: 50 mg/kg i.v. QW×3, Day 43, 50 mg/kg): 263.45 mm^3 and 263.45 ± 86.54 mm^3
CR Rate [3, 8]: 2/6
Tumor volume [3, 9]: 146.81 mm^3
Tumor volume ([3]; Group 6: 25 mg/kg i.v. QW×3, Day 9): 213.60 mm^3
Tumor volume ([3]; Group 6: 25 mg/kg i.v. QW×3, Day 13): 233.94 mm^3
Tumor volume ([3]; Group 6: 25 mg/kg i.v. QW×3, Day 16): 277.57 mm^3
Tumor volume ([3]; Group 6: 25 mg/kg i.v. QW×3, Day 20): 295.46 mm^3
Tumor volume ([3]; Group 6: 25 mg/kg i.v. QW×3, Day 23): 328.33 mm^3
Tumor volume ([3]; Group 6: 25 mg/kg i.v. QW×3, Day 27): 373.13 mm^3
Tumor volume ([3]; Group 6: 25 mg/kg i.v. QW×3, Day 30): 454.44 mm^3
Tumor volume ([3]; Group 6: 25 mg/kg i.v. QW×3, Day 34): 705.45 mm^3
Tumor volume ([3]; Group 6: 25 mg/kg i.v. QW×3, Day 37): 886.42 mm^3
Tumor volume ([3]; Group 6: 25 mg/kg i.v. QW×3, Day 41): 1344.26 mm^3
Relative Tumor Volume (x ± S) [3, 10]: 11.12 ± 3.31
T/C (%) [3, 10]: 121.59%
TGI (%) [3, 10]: −21.59%
Tumor volume ([3]; Group 6: 25 mg/kg i.v. QW×3, Day 43, 25 mg/kg): 1521.33 mm^3 and 1521.33 ± 349.46 mm^3
CR Rate [3, 10]: 0/6
